Results published in paper PMC11222350, “Preclinical evaluation of [^18F]FP-CIT, the radiotracer targeting dopamine transporter for diagnosing Parkinson’s disease: pharmacokinetic and efficacy analysis” (EJNMMI Research, 2024).

How the values were obtained:
dopamine transporter = details: PET scanning; cited from earlier work
[1] = Biodistribution and pharmacokinetic constants of [^18F]FP-CIT in normal mice; type: in vivo, C57BL/6 mice; details: for AUC / CL / Cmax / T1/2 / Tmax: normal mice (group I), 3.7 MBq i.v.
Procedure: Male C57BL/6 mice (group I) were anesthetized with 2% isoflurane in oxygen, and 3.7 MBq of [^18F]FP-CIT was intravenously injected via the tail vein. Mice were sacrificed at different time points (1, 5, 10, 30, 60, and 120 min after injection, n = 4 each), and the tissues of interest (blood, muscle, heart, lung, liver, spleen, stomach, intestine, kidney, bone, cerebellum, striatum, and remaining brain tissues) were harvested, weighed, and measured for radioactivity using a gamma counter (Wizard 1480; PerkinElmer, Waltham, MA, USA). The uptake in each tissue sample was expressed as a percentage of the injected dose per gram (%ID/g). The pharmacokinetic constants of [^18F]FP-CIT in normal C57BL/6 mice were calculated from the %ID/g results of its biodistribution.

[2] = 1 min post-injection (highest uptake), normal mice

In the case of `COC(=O)[C@H]1[C@@H](c2ccc(I)cc2)C[C@@H]2CC[C@H]1N2CCCF` [[^18F]FP-CIT, N-(3-fluoropropyl)-2β-carboxymethoxy-3β-(4-iodophenyl) nortropane], the “time of transient equilibrium in time activity curves (specific binding to the striatum)” value (dopamine transporter) is listed as 60 to 100 min, the uptake in cerebellum [1, 2] is listed as 21.42 ± 12.19 %ID/g and the uptake in striatum [1, 2] is listed as 23.50 ± 12.46 %ID/g. The “uptake in the rest of the brain” value [1, 2] was 20.06 ± 12.12 %ID/g, the “uptake in the liver” value ([1]; 60 min after injection (highest uptake), normal mice) was 30.82 ± 1.64 %ID/g and the AUC ([1]; blood) was 95.43 ± 4.34 %ID*min/g. It also gave a CL ([1]; blood) of 1.05 ± 0.05 cc/min, a Cmax ([1]; blood) of 2.68 ± 0.12 %ID/g and a T1/2 ([1]; blood) of 11.12 ± 1.83 min. The Tmax ([1]; blood) was 1.00 ± 0.00 min, the AUC ([1]; bone) was 636.73 ± 25.74 %ID*min/g and the CL ([1]; bone) was 0.16 ± 0.01 cc/min. It also gave a Cmax ([1]; bone) of 9.55 ± 1.48 %ID/g, a T1/2 ([1]; bone) of 114.55 ± 23.62 min and a Tmax ([1]; bone) of 120.00 ± 0.00 min. For the same compound, the “time of maximum concentration” value ([1]; brain, normal mice) was 1 min, the AUC ([1]; cerebellum) was 174.48 ± 20.00 %ID*min/g and the CL ([1]; cerebellum) was 0.58 ± 0.07 cc/min. It also gave a Cmax ([1]; cerebellum) of 10.97 ± 9.59 %ID/g, a T1/2 ([1]; cerebellum) of 17.30 ± 17.89 min and a Tmax ([1]; cerebellum) of 1.00 ± 0.00 min. For the same compound, the AUC ([1]; heart) was 180.65 ± 13.75 %ID*min/g, the CL ([1]; heart) was 0.56 ± 0.04 cc/min and the Cmax ([1]; heart) was 7.71 ± 0.74 %ID/g. The T1/2 ([1]; heart) was 62.29 ± 4.86 min, the Tmax ([1]; heart) was 1.00 ± 0.00 min and the AUC ([1]; intestine) was 614.35 ± 28.65 %ID*min/g. It also gave a CL ([1]; intestine) of 0.16 ± 0.01 cc/min, a Cmax ([1]; intestine) of 6.00 ± 0.47 %ID/g and a T1/2 ([1]; intestine) of 497.98 ± 350.19 min. It also gave a Tmax ([1]; intestine) of 19.00 ± 27.58 min, an AUC ([1]; kidney) of 680.50 ± 45.28 %ID*min/g and a CL ([1]; kidney) of 0.15 ± 0.01 cc/min. The Cmax ([1]; kidney) was 31.96 ± 5.10 %ID/g, the T1/2 ([1]; kidney) was 89.82 ± 11.39 min and the Tmax ([1]; kidney) was 1.00 ± 0.00 min. The AUC ([1]; liver) was 3095.50 ± 181.39 %ID*min/g, the CL ([1]; liver) was 0.03 ± 0.00 cc/min and the T1/2 ([1]; liver) was 26.50 ± 4.4 min. The Tmax ([1]; liver) was 4.00 ± 2.00 min, the AUC ([1]; lung) was 408.70 ± 65.06 %ID*min/g and the CL ([1]; lung) was 0.25 ± 0.04 cc/min. The Cmax ([1]; lung) was 21.31 ± 3.18 %ID/g, the T1/2 ([1]; lung) was 79.46 ± 10.66 min and the Tmax ([1]; lung) was 1.00 ± 0.00 min. The “uptake in the intestine” value ([1]; maintained for 120 min after injection, normal mice) was “approximately 5 %ID/g”, the AUC ([1]; muscle) was 150.08 ± 13.03 %ID*min/g and the CL ([1]; muscle) was 0.67 ± 0.06 cc/min. The Cmax ([1]; muscle) was 2.42 ± 0.98 %ID/g, the T1/2 ([1]; muscle) was 137.84 ± 198.01 min and the Tmax ([1]; muscle) was 5.00 ± 0.00 min. The AUC ([1]; rest of the brain) was 244.03 ± 34.63 %ID*min/g, the CL ([1]; rest of the brain) was 0.42 ± 0.06 cc/min and the Cmax ([1]; rest of the brain) was 17.19 ± 16.17 %ID/g. It also gave a T1/2 ([1]; rest of the brain) of 55.64 ± 29.71 min, a Tmax ([1]; rest of the brain) of 1.00 ± 0.00 min and an AUC ([1]; spleen) of 288.90 ± 39.35 %ID*min/g. It also gave a CL ([1]; spleen) of 0.35 ± 0.05 cc/min, a Cmax ([1]; spleen) of 14.52 ± 1.35 %ID/g and a T1/2 ([1]; spleen) of 81.36 ± 16.91 min. It also gave a Tmax ([1]; spleen) of 3.00 ± 2.31 min, an AUC ([1]; stomach) of 444.70 ± 47.17 %ID*min/g and a CL ([1]; stomach) of 0.23 ± 0.02 cc/min. For the same compound, the Cmax ([1]; stomach) was 7.14 ± 1.99 %ID/g, the T1/2 ([1]; stomach) was 177.39 ± 36.93 min and the Tmax ([1]; stomach) was 7.50 ± 2.89 min. It also gave an AUC ([1]; striatum) of 223.30 ± 37.82 %ID*min/g, a CL ([1]; striatum) of 0.46 ± 0.08 cc/min and a T1/2 ([1]; striatum) of 39.62 ± 18.71 min. It also gave a Tmax ([1]; striatum) of 1.00 ± 0.00 min.
